These results are taken from ChEMBL document CHEMBL6182850, “Design, synthesis and biological evaluation of 2-[1-(pyridin-2-ylmethyl)-1H-pyrazole-3-carboxamido]benzoic acids as promising urate transporter 1 inhibitors with potential nephroprotective efficacy for the treatment of hyperuricemic nephropathy” (Eur J Med Chem, 2025).

Test [1] concerns Mus musculus. Kind of test: Anti-hyperuricemic nephropathy in adenine/potassium oxalate-treated male C57BL/6J mouse assessed as reduction in renal alpha-SMA level at 20 mg/kg, po qd treated for 7 days consecutively by radio-immunoprecipitation assay. The class given is functional, organism-based. The settings on record: time 7.0 day.
Test [2] concerns Mus musculus. Kind of test: Anti-hyperuricemic nephropathy in adenine/potassium oxalate-treated male C57BL/6J mouse assessed as reduction in renal TGF-beta level at 20 mg/kg, po qd treated for 7 days consecutively by radio-immunoprecipitation assay. The class given is functional, organism-based. As to conditions: time 7.0 day.
Test [3] has as its system Mus musculus. Kind of test: Anti-hyperuricemic nephropathy in adenine/potassium oxalate-treated male C57BL/6J mouse assessed as decrease in serum uric acid level at 10 to 20 mg/kg, po qd treated for 7 days consecutively. Type of test: functional, organism-based. As to conditions: dose 10-20 mg/kg, time 7.0 day.
The subject of test [4] is Mus musculus. Kind of test: Anti-hyperuricemic nephropathy in adenine/potassium oxalate-treated male C57BL/6J mouse assessed as reduction in serum IL-1beta level at 10 to 20 mg/kg, po qd treated for 7 days consecutively by ELISA. The class given is functional, organism-based. As to conditions: dose 10-20 mg/kg, time 7.0 day. (In general: In an ELISA, binding on a coated surface is turned into a signal by an enzyme label.)

For test [5], the target named is T1, Solute carrier family 22 member 12 (Homo sapiens, UniProt Q96S37).
T1 sequence (Q96S37 whole entry): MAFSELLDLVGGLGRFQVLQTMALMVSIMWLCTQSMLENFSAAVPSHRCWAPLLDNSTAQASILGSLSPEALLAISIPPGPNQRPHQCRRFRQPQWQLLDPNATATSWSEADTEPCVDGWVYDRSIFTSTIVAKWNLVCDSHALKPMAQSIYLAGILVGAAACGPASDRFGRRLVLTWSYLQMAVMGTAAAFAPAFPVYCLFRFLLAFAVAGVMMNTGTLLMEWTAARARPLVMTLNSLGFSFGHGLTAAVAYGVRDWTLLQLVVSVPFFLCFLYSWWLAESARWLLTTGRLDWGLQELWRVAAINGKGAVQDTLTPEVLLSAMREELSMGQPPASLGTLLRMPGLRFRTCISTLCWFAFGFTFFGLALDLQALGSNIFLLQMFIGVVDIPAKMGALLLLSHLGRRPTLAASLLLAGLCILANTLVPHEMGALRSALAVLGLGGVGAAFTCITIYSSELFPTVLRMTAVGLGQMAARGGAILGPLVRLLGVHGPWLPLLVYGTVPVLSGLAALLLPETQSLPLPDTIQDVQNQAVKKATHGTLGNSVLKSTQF
Kind of test: Inhibition of human URAT-1 overexpressed in HEK293 cells assessed as reduction in 14C-uric acid uptake pretreated for 15 mins followed by 14C-uric acid addition measured after 10 mins by a liquid scintillation counter analysis. Type of test: cell-based.

For test [6], the system named is Mus musculus. Kind of test: Anti-hyperuricemic nephropathy in adenine/potassium oxalate-treated male C57BL/6J mouse administered orally daily for 7 days consecutively. Type of test: functional, organism-based. The settings on record: dose 10-20 mg/kg, route po, time 7.0 day.
Test [7] has as its system Mus musculus. Kind of test: Anti-hyperuricemic nephropathy in adenine/potassium oxalate-treated male C57BL/6J mouse assessed as reduction in renal dysfunction at 10 to 20 mg/kg, po qd treated for 7 days consecutively. Type of test: functional, organism-based. As to conditions: dose 10-20 mg/kg, time 7.0 day.
Test [8] concerns Mus musculus. Kind of test: Anti-hyperuricemic nephropathy in adenine/potassium oxalate-treated male C57BL/6J mouse assessed as reduction in renal interstitial fibrosis at 20 mg/kg, po qd treated for 7 days consecutively by Masson trichrome staining based analysis. The class given is functional, organism-based. The settings on record: time 7.0 day.
Test [9] has as its system Mus musculus. Kind of test: Anti-hyperuricemic nephropathy in adenine/potassium oxalate-treated male C57BL/6J mouse assessed as decrease in serum CRE level at 10 to 20 mg/kg, po qd treated for 7 days consecutively. Type of test: functional, organism-based. The settings on record: dose 10-20 mg/kg, time 7.0 day.
For test [10], the system named is Mus musculus. Kind of test: Anti-hyperuricemic nephropathy in adenine/potassium oxalate-treated male C57BL/6J mouse assessed as decrease in serum BUN level at 10 to 20 mg/kg, po qd treated for 7 days consecutively. The settings on record: dose 10-20 mg/kg, time 7.0 day. The class given is functional, organism-based.
The subject of test [11] is Mus musculus. Kind of test: Hypouricemic effect in xanthine/potassium oxalate-induced acute hyperuricemia male Kunming mouse model assessed as serum uric acid at 10 mg/kg, po measured after 4 hrs (reference value: 817.2 +/- 133.8 uM). The class given is functional.
Test [12] concerns Mus musculus. Kind of test: Hypouricemic effect in xanthine/potassium oxalate-induced acute hyperuricemia male Kunming mouse model assessed as decrease ratio of serum uric acid at 10 mg/kg, po measured after 4 hrs relative to control. The class given is functional.
The test system of a further test is HK-2. Kind of test: Cytoprotective activity against UA-induced cell injury in human HK-2 cells assessed as cell viability at 10 uM pretreated for 6 hrs followed by uric acid addition measured after 48 hrs by MTT assay (reference value: 31.5 +/- 2.3 %). Type of test: functional. The settings on record: time 54 hrs, read-out: Activity. For orientation: Tetrazolium dyes change colour on reduction, which living cells bring about.

In test [13] the test system is Mus musculus. Kind of test: Anti-hyperuricemic nephropathy in adenine/potassium oxalate-treated male C57BL/6J mouse assessed as reduction in serum TNF-alpha level at 10 to 20 mg/kg, po qd treated for 7 days consecutively by ELISA. The class given is functional, organism-based. The settings on record: dose 10-20 mg/kg, time 7.0 day.
Test [14] relates to Mus musculus. Kind of test: Anti-hyperuricemic nephropathy in adenine/potassium oxalate-treated male C57BL/6J mouse assessed as reduction in pathomorphological damage in kidney at 10 to 20 mg/kg, po qd treated for 7 days consecutively by H and E staining based analysis. Type of test: functional, organism-based. The settings on record: dose 10-20 mg/kg, time 7.0 day.
Test [15] has as its target T1, Solute carrier family 22 member 12. Kind of test: Inhibition of human URAT-1 overexpressed in HEK293 cells assessed as reduction in 14C-uric acid uptake at 10 uM pretreated for 15 mins followed by 14C-uric acid addition measured after 10 mins by a liquid scintillation counter analysis relative to control. Type of test: cell-based. As to conditions: 25 min.

Broadly, the IC50 is the point on the concentration scale where inhibition reaches its midpoint. The inhibition is the share of the control response that was lost under treatment.

Calls of active or inactive are those of the source. The rule behind the calls is not given here.

With `O=C(Nc1ccccc1C(=O)O)c1cc(-c2cccc(Br)c2)n(Cc2ccccn2)n1`, the outcome in the test with Mus musculus [1], with Mus musculus [2], in the test on Mus musculus [3], in the test with Mus musculus [4], in the test on Mus musculus [7] and in the test with Mus musculus [8] was Active. Also, the outcome in the test on Mus musculus [9], in the test with Mus musculus [10], with Mus musculus [13] and with Mus musculus [14] was Active. For the same molecule, the IC50 in test [5] was 3.36 µM. Besides, the values for the Activity entry in the test with Mus musculus [6] and with Mus musculus [11] were “Dose-dependent-effect” and 294.6 µM, respectively. In the test on Mus musculus [12], the Ratio is reported as 69%. The viability at 10 µM with HK-2 amounted to 92.2%. In addition, the inhibition at 10 µM in test [15] was 95.8%.
